Values quoted from earlier work as cited in PMC8683664 (International Journal of Pharmaceutics: X, 2021).
≈ marks a conversion by molar mass, not a printed value. Read-outs that look alike come from different tables or passages of the source.

Assays:
SAR-CoV-2 = conditions: human airway epithelial (HAE) cells, value in brackets ref Agostini et al., 2018
SARS-CoV-2 [1] = conditions: read-out: EC50 in Calu-3; continuous human lung epithelial cell line (Calu-3), prescribing information of Veklury ref Gilead Sciences, Inc., 2020
SARS-CoV-2 [2] = conditions: 2020; for EC50 in Calu-3 2B4 cells: value in brackets ref Pruijssers et al.; for EC50: read-out: EC50 in Calu-3 2B4 cells, Calu-3 2B4 cells ref Pruijssers et al.
severe COVID-19 patients = conditions: 10-day course, placebo 15 days ref Beigel et al., 2020

| Compound | EC50 against SAR-CoV-2 in HAE (SAR-CoV-2) [ng/mL] | EC50 (SARS-CoV-2 [1]) [nM] | EC50 in Calu-3 2B4 cells (SARS-CoV-2 [2]) [ng/mL] | EC50 (SARS-CoV-2 [2]) [nM] | recovery time (severe COVID-19 patients) [days] |
| --- | --- | --- | --- | --- | --- |
| CCC(CC)COC(=O)[C@H](C)N[P@](=O)(OC[C@H]1O[C@@](C#N)(c2ccc3c(N)ncnn23)[C@H](O)[C@@H]1O)Oc1ccccc1 [remdesivir] | 42.18 (≈ 0.07 µM) | 280 | 168.73 (≈ 0.28 µM) | 280 | 11 |
| N#C[C@@]1(c2ccc3c(N)ncnn23)O[C@H](CO)[C@@H](O)[C@H]1O [GS-441524] | 52.43 (≈ 0.18 µM) | – | 180.6 (≈ 0.62 µM) | 620 | – |
